According to ChEMBL document CHEMBL1201862, “PubChem BioAssay data set” (2004):
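In this assay, cells in 96-well plates receive the compound at five concentrations for 48 hours. Endpoints are linearly interpolated between the surrounding concentrations. At the GI50, growth is halved.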 Calls of active or inactive are those of the source. No stated cut-off is given here; in the data, active = GI50 up to about 1.1 µM and inactive = higher.

Key:
Assay in all cases: NCI anticancer screen, dose series, 48 h
HCC 2998 = test system: HCC 2998
KM-20L2 = test system: KM-20L2
HL-60 = test system: HL-60
SNB-19 = test system: SNB-19
UACC-62 = test system: UACC-62
SR = test system: SR
A498 = test system: A498
SK-OV-3 = test system: SK-OV-3
HCT-116 = test system: HCT-116
HCT-15 = test system: HCT-15
UO-31 = test system: UO-31
SF-295 = test system: SF-295
TK-10 = test system: TK-10
SF-268 = test system: SF-268
SF-539 = test system: SF-539
NCI-H226 = test system: NCI-H226
CCRF-CEM = test system: CCRF-CEM
M14 = test system: M14
HT-29 = test system: HT-29
SK-MEL-28 = test system: SK-MEL-28
HOP-92 = test system: HOP-92
HOP-18 = test system: HOP-18
K562 = test system: K562
SN12C = test system: SN12C
DLD-1 = test system: DLD-1
RXF 393 = test system: RXF 393
LOX IMVI = test system: LOX IMVI
COLO 205 = test system: COLO 205
OVCAR-4 = test system: OVCAR-4
SW-620 = test system: SW-620
RPMI-8226 = test system: RPMI-8226
IGROV-1 = test system: IGROV-1
XF498 = test system: XF498
OVCAR-8 = test system: OVCAR-8
U-251 = test system: U-251
EKVX = test system: EKVX
Malme-3M = test system: Malme-3M
NCI-H23 = test system: NCI-H23
CAKI-1 = test system: CAKI-1
A549 = test system: A549
HOP-62 = test system: HOP-62
ACHN = test system: ACHN
LXFL 529 = test system: LXFL 529
OVCAR-5 = test system: OVCAR-5
SK-MEL-2 = test system: SK-MEL-2
SK-MEL-5 = test system: SK-MEL-5
786-0 = test system: 786-0
NCI-H460 = test system: NCI-H460
SNB-75 = test system: SNB-75
UACC-257 = test system: UACC-257
DMS-273 = test system: DMS-273
RXF 631 = test system: RXF 631
DMS-114 = test system: DMS-114
SNB-78 = test system: SNB-78
MOLT-4 = test system: MOLT-4
KM12 = test system: KM12
OVCAR-3 = test system: OVCAR-3
MDA-MB-231 = test system: MDA-MB-231
DU-145 = test system: DU-145
BT-549 = test system: BT-549
MCF7 = test system: MCF7
MDA-N = test system: MDA-N
Hs-578T = test system: Hs-578T
NCI-H522 = test system: NCI-H522
PC-3 = test system: PC-3
MDA-MB-435 = test system: MDA-MB-435
T47D = test system: T47D
M19-MEL = test system: M19-MEL

Compound: Cc1cnoc1/N=C1\C=C(Nc2oncc2C)C(=O)c2ccccc21
- GI50 (HCC 2998): > 100 µM (inactive)
- GI50 (KM-20L2): > 100 µM (inactive)
- GI50 (HL-60): > 100 µM (inactive)
- GI50 (SNB-19): > 100 µM (inactive)
- GI50 (UACC-62): 48.3 µM (inactive)
- GI50 (SR): > 100 µM (inactive)
- GI50 (A498): > 100 µM (inactive)
- GI50 (SK-OV-3): > 100 µM (inactive)
- GI50 (HCT-116): > 100 µM (inactive)
- GI50 (HCT-15): 73.1 µM
- GI50 (UO-31): 62.1 µM (inactive)
- GI50 (SF-295): > 100 µM (inactive)
- GI50 (TK-10): > 100 µM (inactive)
- GI50 (SF-268): > 100 µM (inactive)
- GI50 (SF-539): > 100 µM (inactive)
- GI50 (NCI-H226): > 100 µM (inactive)
- GI50 (CCRF-CEM): > 100 µM (inactive)
- GI50 (M14): > 100 µM (inactive)
- GI50 (HT-29): > 100 µM (inactive)
- GI50 (SK-MEL-28): > 100 µM (inactive)
- GI50 (HOP-92): > 100 µM (inactive)
- GI50 (HOP-18): > 100 µM (inactive)
- GI50 (K562): 25.5 µM (inactive)
- GI50 (SN12C): > 100 µM (inactive)
- GI50 (DLD-1): > 100 µM (inactive)
- GI50 (RXF 393): > 100 µM (inactive)
- GI50 (LOX IMVI): 23.3 µM (inactive)
- GI50 (COLO 205): > 100 µM (inactive)
- GI50 (OVCAR-4): > 100 µM (inactive)
- GI50 (SW-620): > 100 µM (inactive)
- GI50 (RPMI-8226): > 100 µM (inactive)
- GI50 (IGROV-1): > 100 µM (inactive)
- GI50 (XF498): > 100 µM (inactive)
- GI50 (OVCAR-8): 30.8 µM (inactive)
- GI50 (U-251): > 100 µM (inactive)
- GI50 (EKVX): > 100 µM (inactive)
- GI50 (Malme-3M): > 100 µM (inactive)
- GI50 (NCI-H23): 60.5 µM (inactive)
- GI50 (CAKI-1): > 100 µM (inactive)
- GI50 (A549): > 100 µM (inactive)
- GI50 (HOP-62): > 100 µM (inactive)
- GI50 (ACHN): > 100 µM (inactive)
- GI50 (LXFL 529): 79.1 µM (inactive)
- GI50 (OVCAR-5): > 100 µM (inactive)
- GI50 (SK-MEL-2): > 100 µM (inactive)
- GI50 (SK-MEL-5): 33.3 µM (inactive)
- GI50 (786-0): > 100 µM (inactive)
- GI50 (NCI-H460): > 100 µM (inactive)
- GI50 (SNB-75): > 100 µM (inactive)
- GI50 (UACC-257): 65.6 µM (inactive)
- GI50 (DMS-273): > 100 µM (inactive)
- GI50 (RXF 631): > 100 µM (inactive)
- GI50 (DMS-114): 46.8 µM (inactive)
- GI50 (SNB-78): > 100 µM (inactive)
- GI50 (MOLT-4): > 100 µM (inactive)
- GI50 (KM12): > 100 µM (inactive)
- GI50 (OVCAR-3): 9.86 µM (inactive)

Compound: N=c1nc(N)c2cc3c(N)nc(=N)c3cc12
- GI50 (HCC 2998): 31.3 µM (inactive)
- GI50 (KM-20L2): > 100 µM (inactive)
- GI50 (MDA-MB-231): 2.69 µM (inactive)
- GI50 (HL-60): 2.02 µM (inactive)
- GI50 (DU-145): 30.5 µM (inactive)
- GI50 (SNB-19): 58.6 µM (inactive)
- GI50 (UACC-62): 3.72 µM (inactive)
- GI50 (SR): 3.83 µM (inactive)
- GI50 (A498): > 9.27 µM (inactive)
- GI50 (BT-549): 3.99 µM (inactive)
- GI50 (SK-OV-3): 28.6 µM (inactive)
- GI50 (HCT-116): 4.55 µM (inactive)
- GI50 (HCT-15): 71.6 µM
- GI50 (UO-31): 7.5 µM (inactive)
- GI50 (SF-295): 14.9 µM (inactive)
- GI50 (TK-10): 15.3 µM (inactive)
- GI50 (SF-268): 2.62 µM (inactive)
- GI50 (SF-539): 4.85 µM (inactive)
- GI50 (NCI-H226): 13 µM (inactive)
- GI50 (CCRF-CEM): 2.28 µM (inactive)
- GI50 (M14): 2.47 µM (inactive)
- GI50 (MCF7): 33.5 µM (inactive)
- GI50 (HT-29): 82.2 µM (inactive)
- GI50 (MDA-N): 2.05 µM (inactive)
- GI50 (SK-MEL-28): 2.45 µM (inactive)
- GI50 (HOP-92): 3.94 µM (inactive)
- GI50 (HOP-18): 8.97 µM (inactive)
- GI50 (K562): 2.2 µM (inactive)
- GI50 (SN12C): 5.07 µM (inactive)
- GI50 (DLD-1): > 73.5 µM (inactive)
- GI50 (RXF 393): 6.32 µM (inactive)
- GI50 (LOX IMVI): 2.49 µM (inactive)
- GI50 (COLO 205): > 91.8 µM (inactive)
- GI50 (OVCAR-4): 15.4 µM (inactive)
- GI50 (SW-620): 5.27 µM (inactive)
- GI50 (RPMI-8226): 3.13 µM (inactive)
- GI50 (IGROV-1): > 100 µM (inactive)
- GI50 (OVCAR-8): 4.35 µM (inactive)
- GI50 (U-251): 11.5 µM (inactive)
- GI50 (Hs-578T): 36.1 µM (inactive)
- GI50 (EKVX): 25.2 µM (inactive)
- GI50 (Malme-3M): 2.95 µM (inactive)
- GI50 (NCI-H522): 16 µM (inactive)
- GI50 (NCI-H23): 35.3 µM (inactive)
- GI50 (CAKI-1): 8.38 µM (inactive)
- GI50 (A549): > 100 µM (inactive)
- GI50 (HOP-62): 12.4 µM (inactive)
- GI50 (ACHN): 63.5 µM (inactive)
- GI50 (LXFL 529): 38.1 µM (inactive)
- GI50 (OVCAR-5): 19.1 µM (inactive)
- GI50 (PC-3): 36.1 µM (inactive)
- GI50 (SK-MEL-2): 3.31 µM (inactive)
- GI50 (SK-MEL-5): 60.8 µM (inactive)
- GI50 (786-0): 4.86 µM (inactive)
- GI50 (NCI-H460): 22.5 µM (inactive)
- GI50 (SNB-75): 8.09 µM (inactive)
- GI50 (UACC-257): 3.37 µM (inactive)
- GI50 (DMS-273): 30.7 µM (inactive)
- GI50 (MDA-MB-435): 3.19 µM (inactive)
- GI50 (RXF 631): 14.5 µM (inactive)
- GI50 (DMS-114): 5.74 µM (inactive)
- GI50 (SNB-78): 9.35 µM (inactive)
- GI50 (MOLT-4): 4.07 µM (inactive)
- GI50 (T47D): 8.51 µM (inactive)
- GI50 (M19-MEL): 1.87 µM (inactive)
- GI50 (KM12): 72.9 µM (inactive)
- GI50 (OVCAR-3): 27.9 µM (inactive)
